Results taken from US5468760A, “Aralkyl-N-hydroxyureas as inhibitors of 5-lipoxygenase and oxidation of low density lipoprotein” (American Home Products Corporation, priority 1993, dated 1995).

Experiments:
5-Lipoxygenase = target: T1, 5-Lipoxygenase (Homo sapiens, UniProt P09917); test: Inhibition of 5-Lipoxygenase in Human Whole Blood (LTB4, calcium ionophore A23187); format: cell-based; details: 1 μM
T1 construct: endogenous in cells; host or cells: human whole blood from male donors (results expressed per 10^6 neutrophils)
T1 sequence (P09917 1-674): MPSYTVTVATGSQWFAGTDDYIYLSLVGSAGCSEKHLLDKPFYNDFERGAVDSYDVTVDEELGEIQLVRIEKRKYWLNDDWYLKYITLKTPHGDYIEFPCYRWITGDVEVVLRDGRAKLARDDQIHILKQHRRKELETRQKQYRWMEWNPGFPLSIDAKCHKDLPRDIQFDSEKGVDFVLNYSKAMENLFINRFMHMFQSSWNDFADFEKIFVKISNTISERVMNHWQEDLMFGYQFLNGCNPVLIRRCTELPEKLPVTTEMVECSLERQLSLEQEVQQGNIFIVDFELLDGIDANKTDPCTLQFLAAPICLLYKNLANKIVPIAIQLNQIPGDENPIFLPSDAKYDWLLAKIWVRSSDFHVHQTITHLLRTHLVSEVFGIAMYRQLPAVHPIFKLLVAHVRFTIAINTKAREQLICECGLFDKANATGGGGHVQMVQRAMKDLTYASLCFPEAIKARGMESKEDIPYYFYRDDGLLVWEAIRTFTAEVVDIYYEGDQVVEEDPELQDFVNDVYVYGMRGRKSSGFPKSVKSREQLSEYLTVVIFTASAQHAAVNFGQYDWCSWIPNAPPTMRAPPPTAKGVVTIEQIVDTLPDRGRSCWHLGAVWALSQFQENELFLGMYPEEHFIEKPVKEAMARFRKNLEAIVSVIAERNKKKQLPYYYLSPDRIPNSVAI
Description: 1. Inhibition of 5-Lipoxygenase in Human Whole Blood
Blood is obtained in 50-100 ml quantities from male donors. White blood cell counts and differentials are made. Two ml of blood are placed in a 15 ml polypropylene test tube. Test compounds are solubilized in dimethylsulfoxide and diluted in 1:10 in 10% bovine serum albumin in phosphate buffered saline, pH 7.4 resulting in a final dimethylsulfoxide concentration of 0.1% in the blood. Then, solutions of test compounds are added to the blood in a shaking water bath at 37° C. for 10 minutes prior to the addition of 30 μM calcium ionophore (A23 187, Sigma). After ionophore administration, whole blood samples are mixed and incubated for 20 minutes at 37° C. in a shaking water bath. Incubation is terminated by placing samples in an ice bath and immediately adding ethylene glycol-bis-(β-aminoethyl ether)-N,N,N',N'-tetraaceticacid (10 mM). Samples are mixed and centrifuged at 1200 x g for 15 minutes at 4° C. Preparation of samples for evaluation by RIA or ELISA is carried out by the following protocol. Plasma is removed from sample tubes, placed in 15 ml polypropylene test tubes containing 8 ml methanol, and then vortexed to precipitate protein. Samples are stored at -70° C. overnight. The next day, samples are centrifuged at 200 x g for 15 minutes at 4° C. to pellet the precipitate. Samples are dried in a Savant SpeedVac Concentrator, Model SVC 200H, reconstituted to original volume with ice cold RIA or ELISA buffer, and stored at -70° C. until assayed. The assay for eicosanoids (LTB4, TxB2, and PGE2) is performed as described by the manufacturer of the [^3 H]-RIA kit or ELISA kit (LTB4 -Amersham, TxB2 and PGE2 -Caymen Chemical).
The total eicosanoid level in 2 ml of blood is calculated and reported as ng/10^6 neutrophils. Significance is determined by a one-way analysis of variance with least significant difference (LSD) comparisons to control (p≤0.05) and IC50 's (μM) are determined by regression analysis (Finney, 1978). Drug effects are expressed as percent change from control values.

Lipoxygenase = test: Ex-Vivo Measurement of Lipoxygenase Inhibition in Orally Dosed Rats (LTB4); design: species or system rat (male Sprague Dawley); details: p.o., pretreatment period 6 hr
Description: 2. Ex-Vivo Measurement of Lipoxygenase Inhibition in Orally Dosed Rats
Male Sprague Dawley rats (Charles River) weighing between 180 g and 200 g were dosed orally with an invention compound (1-25 mg/kg, po) suspended in 0.5% Tween 80®. After an interval of 3 or 6 hours, the rats were anesthetized with metofane (n=4/group) and blood collected in heparinized tubes. White blood cell counts and differentials were made. One ml of blood from each animal was placed in a 5 ml plastic tube in a shaker bath at 37° C. A23187 at a final concentration of 10 μM was added to the blood and the blood vortexed and incubated for 15 min at […] with gentle shaking. Incubation was terminated by vortexing sample and centrifuging immediately at 1200 xG for 15 min at 4° C. The plasma was transferred to 15 ml plastic tubes each containing 8 ml of methanol to precipitate protein followed by vortexing. The samples were stored at -70 ° C. overnight and the next day the samples were centrifuged at 800 xG for 15 min to pellet the precipitate. The samples were dried in a Savant SpeedVac Concentrator Model SVC 200H and reconstituted to the original volume with cold RIA or ELISA buffer. The reconstituted samples were stored at -70° C. until assayed. The assay for LTB4 was performed according to the directions of the [^3 H]RIA kit or ELISA kit (Seragen). The total metabolite level in 1 ml of blood is calculated and reported as ng/10^6 neutrophils. Significance is determined by a one-way analysis of variance with LSD comparisons to control (p≤0.05).

LTB4 Synthesis = test: Reverse Passive Arthus Reaction (pleurisy), LTB4 in pleural exudate; format: in vivo, rat (male Lewis); details: 10 mg/kg, p.o.
Description: 3. Reverse Passive Arthus Reaction
A reverse passive Arthus reaction is induced in the pleural cavity of male Lewis rats (150-200 g; fasted overnight prior to use) by the intravenous administration of bovine serum albumin (BSA; 4 mg/0.2 ml) followed 30 minutes later by the injection of rabbit anti-BSA (1 mg/0.2 ml; lyophilized IgG fraction; Organon Teknika, West Chester, Pa.) into the right pleural space under halothane anesthesia. Drugs or vehicle (0.5% Tween-80) control are administered orally in a volume of 1 ml/100 g body weight at 1 hour prior to the anti-BSA. Animals are sacrificed at either the time of peak eicosanoid production (i.e. 5 minutes after anti-BSA for immunoreactive TxB2, 10 minutes for immunoreactive LTB4, 20 minutes for immunoreactive LTC4) or at the time of peak neutrophil infiltration (4 hours after anti-BSA) by CO2 inhalation. The pleural cavity is then exposed., the fluid exudate removed by gentle vacuum aspiration and the volume of exudate is recorded. For the determination of cellular infiltration, the pleural cavity is rinsed with 3 ml of 0.1% EDTA in sterile saline, and the recovered wash is pooled with the exudate. Cell number is determined on a model ZBI Coulter counter. For determination of eicosanoid production, undiluted pleural exudate is microfuged and the supernatant is extracted with ethanol (8-10 times volume). Extracts are either stored at -20° C., or are evaporated to dryness under a stream of N2 and reconstituted in radioimmunoassay (RIA) buffer.
Eicosanoids are quantitated by RIA according to the procedure specified by the RIA kit manufacturer (Advanced Magnetics, Cambridge, Mass.). Briefly, 100 μl of ^3 H-labeled eicosanoid and 100 μl of specific antibody are sequentially added to 100 μl of extracted pleural exudate in BGG-phosphate buffer which contains 0.01M phosphate, 0.1% bovine gamma globulin and 0.1% sodium azide at pH 7.0. Antibody-bound eicosanoid is separated from unbound eicosanoid by the addition of 750 μl of dextran (0.4%)-coated charcoal (Norit A) containing 0.1% sodium azide. The mixture is centrifuged at 2000 RPM at 5° C. for 15 minutes to pellet the charcoal and adsorbed unbound eicosanoid. Antibody-bound labeled eicosanoid is quantitated by counting in a liquid scintillation counter, and is correlated to concentration by a standard curve.

[1] = test system: LT-dependent bronchoconstriction; test: Inhibition of Bronchoconstriction in Guinea Pigs Induced by Exogenously Administered Antigen; format: in vivo, guinea pig (male); details: Cavia porcellus, 5 min, 5 min post-antigen challenge
Description: 4. Inhibition of Brochoconstriction in Guinea Pigs Induced by Exogenously Administered Antigen
Male guinea pigs (Charles River, Wilmington, Mass.) were sensitized 3-4 weeks prior to antigen challenge by administration of 2 i.m. injections of ovalbumin, 1 into each hind limb (35 mg total). Sensitized animals (500-600 g) were fasted overnight prior to experimentation. Conscious animals were then dosed p.o. with drug or vehicle alone (0.5% Tween 80 in H2 O) at the indicated times prior to antigen challenge, or anesthetized animals were dosed i.v. with drug or vehicle alone (DMSO) 5 min prior to antigen challenge. Animals were anesthetized by urethane (2.8 g/kg i.p.). A carotid artery and jugular vein were cannulated to allow for the monitoring of blood pressure and the administration of drugs, respectively. The trachea was then cannulated and connected to a Harvard Apparatus rodent ventilator (S. Natick, Mass.). Spontaneous respiration was abolished by the administration of succinylcholine (2.5 mg/kg i.v.). The animals were then ventilated with room air at a rate of 65 breaths per min. Airway inflation pressure was measured using a Statham pressure transducer (Gould Instruments, Cleveland, Ohio) connected to the tracheal cannula via a side-arm and recorded on a Grass Instruments recorder (Quincy, Mass.). The tidal volume (approximately 10 cc/kg) was adjusted to give a baseline inflation pressure of 8-10 cm H2 O at end inspiration. Animals were then allowed 20 min to stabilize.
Following the stabilization period, animals were given i.v. injections of pyrilamine (5 mg/kg), propranolol (0.1 mg/kg) and indomethacin (10 mg/kg) at 15, 10 and 5 min, respectively, prior to antigen challenge. This pretreatment results in an LT-dependent bronchoconstriction following antigen challenge, which was accomplished by i.v. administration of ovalbumin (10 mg/kg). Only one bronchoconstriction per animal was induced. End-inspiratory inflation pressure (in cm H2 O over baseline) was measured at 5 min post-antigen challenge. A mean value and standard error for the % inhibition of control bronchoconstriction in each drug-treated group was then calculated.

atherosclerotic lesions = details: WHHL rabbits; cited from earlier work
LDL = details: cell mediated and Cu^+2 mediated; cited from earlier work

Row | inhibition at 1 µM (5-Lipoxygenase) | Compound | % Inhibition of LTB4 (Lipoxygenase; 5 mg/kg) | % Inhibition LTB4 Synthesis (LTB4 Synthesis) | inhibition in vivo at 10 mg/kg ([1]; iv, 10 mg/kg i.v.) | inhibition in vivo at 25 mg/kg ([1]; po, 25 mg/kg p.o.) | % Inhibition of LTB4 (Lipoxygenase; 10 mg/kg) | inhibition of formation of atherosclerotic lesions (atherosclerotic lesions) | inhibition of oxidative modification of LDL (LDL)
1 | 48% | Cc1oc(-c2ccc(C(F)(F)F)cc2)nc1COc1cccc(CN(O)C(N)=O)c1 [Example 2, 1-Hydroxy-1-[3-[5-methyl-2-(4-trifluoromethyl-phenyl)-oxazol-4-ylmethoxy]-benzyl]-urea] | 45% | 59% | – | – | – | – | –
2 | 74% | NC(=O)N(O)Cc1cccc(OCc2coc(-c3ccc(F)cc3)n2)c1 [Example 3, 1-[3-[2-(4-fluoro-phenyl)-oxazol-4-ylmethoxy]-benzyl]-1-hydroxy-urea] | – | – | 84% | 26% | 85% | – | –
3 | – | CC(C)(Sc1cc(C(C)(C)C)c(O)c(C(C)(C)C)c1)Sc1cc(C(C)(C)C)c(O)c(C(C)(C)C)c1 [Probucol] | – | – | – | – | – | inhibit the formation of atherosclerotic lesions in WHHL rabbits | inhibits both cell mediated and Cu^+2 mediated oxidative modification of LDL
